Patent publication US6574913B2, “Semiochemical and sonic signals for monitoring and control of clothes moths” (priority 2001, dated 2003)

System: T. bisselliella antenna
Test: Coupled gas chromatographic-electroantennographic detection (GC-EAD)
Parameters: species or system Tineola bisselliella
Details: male and gravid female T. bisselliella antenna; 5 pelt-min of squirrel pelt volatile extract
Procedure: Samples of animal pelt (150 cm^2) were aerated for one week in a cylindrical Pyrex glass chamber. A water-aspirator was used to draw charcoal-filtered, humidified air at 2 L/min through the chamber and a glass column (14 cm×13 mm O. D.) filled with Porapak Q. Volatiles captured on Porapak Q were eluted with 5 ml of redistilled pentane and the eluent concentrated to 2 ml by distillation in a 30 cm Dufton column, adjusting the volatile extract so that 2 μl equalled 5 pelt-min of volatile collection. Aliquots of 2.5 pelt-min equivalents of Porapak Q-captured volatile extracts were analysed by coupled gas chromatographic-electroantennographic detection (GC-EAD) (28) (FIG. 2).
FIG. 2 illustrates flame ionization detector (FID) and electroantennographic detector (EAD ♂: male T. bisselliella antenna; EAD ♀: gravid female T. bisselliella antenna) responses to 5 pelt-min of squirrel pelt volatile extract. Chromatography: Hewlett Packard (HP) 5890A gas chromatograph equipped with a fused silica column (30 m×0.25 mm ID) coated with DB-5; linear flow velocity of carrier gas: 35 cm/sec; injector and FID detector temperature: 240° C.; temperature program: 1 min at 50° C., 20° C./min to 70° C. then 7.5° C./min to 280° C. (J & W Scientific, Folsom, Calif. 95630). EAD-active compounds were analyzed by GC-mass spectrometry (MS) in full scan electron impact (EI) and chemical ionization (isobutane) (CI) modes, using a Varian Saturn II Ion Trap GC-MS and a HP 5985B GC-MS. Antennally-active compounds were identified as follows: 1. hexanal (20.0); 2. heptanal (35.0); 3. octanal (55.0); 4. nonanal (80.0); 5. decanal (20.0); 6. dodecanal (4.0); 7. tridecanal (6.0); 8. tetradecanal (5.0); 9. pentadecanal (0.8); 10. hexadecanal (1.0); 11. heptadecanal (0.7); 12. octadecanal (0.1); 13. heptanol (10.0); 14. nonanol (10.0); 15. decanol (12.0); 16. undecanol (200.0); 17. dodecanol (10.0); 18. tridecanol (70.0); 19. tetradecanol (3.0); 20. pentadecanol (2.0); 21. hexadecanol (0.3); 22. heptadecanol (0.5); 23. octadecanol (0.1); 24. tetradecane (20.0); 25. pentadecane (100.0); 26. hexadecane (100.0); 27. eicosane (20.0); 28. uneicosane (0.7); 29.2-undecanal (4.0); 30. E2-nonenal (9.0); 31. E2-decenal (11.0); 32. geranylacetone (1.0). Numbers in brackets refer to nanogram quantities present in 15 pelt-min of aeration of dried, untanned animal pelt (150 cm^2).
The bodies of two hundred 24-48 hour old virgin male T. bisselliella were extracted for 15 min in methanol.
FIG. 6 illustrates flame ionization detector (FID) and electroantennographic detection (EAD: male T. bisselliella antenna) responses to one male equivalent of male T. bisselliella body extract. EAD-active compounds 1-3 were identified by GC-mass spectrometry as 1. hexadecanoic acid methyl ester; 2. (Z)-9-hexadecenoic acid methyl ester; and 3. octadecanoic acid methyl ester. […] Chromatography: Hewlett Packard (HP) 5890A gas chromatograph equipped with a fused silica column (30 m×0.32 mm ID) coated with DB-23 (J & W Scientific, Folsom, Calif. 95630); linear flow velocity of carrier gas: 35 cm/sec; injector and FID detector temperature: 240° C.; temperature program: 1 min at 50° C., 10° C./min to 200° C. EAD-active compounds were identified by GC-mass spectrometry (MS) in full scan electron impact (EI) mode using a Varian Saturn II Ion Trap GC-MS.
Terminal abdominal segments with pheromone glands of one-hundred 12-48 hour-old virgin females were severed and extracted for 5-15 min in hexane.
FIG. 10 illustrates flame ionization detector (FID) and electroantennographic detector (EAD: male T. bisselliella antenna) responses to one female equivalent of female T. bisselliella pheromone gland extract. EAD-active compounds 1-3 were identified as 1. (E,Z)-2,13:octadecadienol (E2,Z13-18:OH) and 2. (E,Z)-2,13:octadecadienal (E2,Z13-18:Ald). […]

| Structure (SMILES) | electroantennographic detector (EAD) response to components of squirrel pelt volatile extract |
| --- | --- |
| CCCCCCCCCCCCCCCCC=O [heptadecanal] | Antennally-active |
| CCCCCCCCCCCCCCCCCO [heptadecanol] | Antennally-active |
| CCCCCCCCCCCCCCCCCCO [octadecanol] | Antennally-active |
| CCCCCC=O [hexanal] | Antennally-active |
| CCCCCCCCCCCCCCC [pentadecane] | Antennally-active |
| CCCCCCCCCCCCCCCCO [hexadecanol] | Antennally-active |
| CCCCCCCCCCCCCC [tetradecane] | Antennally-active |
| CCCCCCCCC=O [nonanal] | Antennally-active |
| CCCCCCCCCCCCCCCO [pentadecanol] | Antennally-active |
| CCCCCCC/C=C/C=O [E2-decenal] | Antennally-active |
| CCCCCCC=O [heptanal] | Antennally-active |
| CCCCCCCCCCCCCCCCCCCCC [uneicosane] | Antennally-active |
| CCCCCCCCCCCCC=O [tridecanal] | Antennally-active |
| CCCCCCCO [heptanol] | Antennally-active |
| CCCCCCCC=O [octanal] | Antennally-active |
| CCCCCCCCCCCCCCC=O [pentadecanal] | Antennally-active |

| Structure (SMILES) | electroantennographic detector (EAD) response to components of squirrel pelt volatile extract |
| --- | --- |
| CCCCCCCCCCCO [undecanol] | Antennally-active |
| CCCCCC/C=C/C=O [E2-nonenal] | Antennally-active |
| CCCCCCCCCCCCCCCC=O [hexadecanal] | Antennally-active |
| CCCCCCCCCC=O [decanal] | Antennally-active |
| CCCCCCCCCCCCCO [tridecanol] | Antennally-active |
| CCCCCCCCCCCCO [dodecanol] | Antennally-active |
| CC(=O)CC/C=C(\C)CCC=C(C)C [geranylacetone] | Antennally-active |
| CCCCCCCCCCCCCCCCCCCC [eicosane] | Antennally-active |
| CCCCCCCCCCCCCCCC [hexadecane] | Antennally-active |
| CCCCCCCCCO [nonanol] | Antennally-active |
| CCCCCCCCCCCCCCO [tetradecanol] | Antennally-active |
| CCCCCCCCCC(C)=O [2-undecanal] | Antennally-active |
| CCCCCCCCCCCCCCCCCC=O [octadecanal] | Antennally-active |
| CCCCCCCCCCCC=O [dodecanal] | Antennally-active |
| CCCCCCCCCCCCCC=O [tetradecanal] | Antennally-active |
| CCCCCCCCCCO [decanol] | Antennally-active |

Same assay, conditions: male antenna, one female equivalent

| Structure (SMILES) | EAD response to components of female T. bisselliella pheromone gland extract |
| --- | --- |
| CCCC/C=C\CCCCCCCCC/C=C/CO [(E,Z)-2,13:octadecadienol] | EAD-active |
| CCCC/C=C\CCCCCCCCC/C=C/C=O [(E,Z)-2,13:octadecadienal] | EAD-active |

Same assay, conditions: male antenna, one male equivalent; similar responses with female antennae

| Structure (SMILES) | EAD response to components of male T. bisselliella body extract |
| --- | --- |
| CCCCCC/C=C\CCCCCCCC(=O)OC [(Z)-9-hexadecenoic acid methyl ester] | EAD-active |
| CCCCCCCCCCCCCCCC(=O)OC [hexadecanoic acid methyl ester] | EAD-active |
| CCCCCCCCCCCCCCCCCC(=O)OC [octadecanoic acid methyl ester] | EAD-active |

System: T. bisselliella
Test: not given
Details: literature refs 16, 17; cited from earlier work

| Structure (SMILES) | attractiveness as reported sex pheromone components |
| --- | --- |
| CCCCCCCCCCCCCCC/C=C/C=O [E2-octadecenal, reference compound] | only moderately attractive |
| CCCC/C=C\CCCCCCCCC/C=C/C=O [(E,Z)-2,13:octadecadienal] | only moderately attractive |

System: T. bisselliella
Test: Arena bioassay: captures of moths on sticky traps baited with test or control stimuli
Assay type: in vivo, Tineola bisselliella
Details: Exps. 29-31; 16:Ester 480 ng plus Z9-16:Ester 840 ng tested together
Procedure: Tactic responses of T. bisselliella to volatile stimuli from larval habitat were assessed in a closed cylindrical Plexiglas container (125 cm diameter, 60 cm height). Thin cardboard discs (10 cm diameter) coated with Tanglefoot on the upper side were placed on the arena floor 80 cm apart from each other. Platforms suspended above the centre of the coated discs supported randomly assigned test or control stimuli. Control stimuli consisted of cardboard silhouettes visually resembling test stimuli. Per experiment 10 replicates with 25 adult moths each were employed. Moths were released during the scotophase from a Petri dish in the centre of the arena after 30-min of acclimation. After 12 hours of experimental time, moths captured on sticky discs (FIG. 1) were recorded as responders and statistically analysed.

| Structure (SMILES) | trap captures, attraction by synthetic male pheromone components |
| --- | --- |
| CCCCCC/C=C\CCCCCCCC(=O)OC [(Z)-9-hexadecenoic acid methyl ester] | attracted both male and virgin female T. bisselliella |
| CCCCCCCCCCCCCCCC(=O)OC [hexadecanoic acid methyl ester] | attracted both male and virgin female T. bisselliella |

Same assay, conditions: Exps. 34-37; tested together in various ratios

| Structure (SMILES) | trap captures of males, attraction by synthetic female pheromone components |
| --- | --- |
| CCCC/C=C\CCCCCCCCC/C=C/CO [(E,Z)-2,13:octadecadienol] | attracted male T. bisselliella |
| CCCC/C=C\CCCCCCCCC/C=C/C=O [(E,Z)-2,13:octadecadienal] | attracted male T. bisselliella |

Same assay, conditions: geranylacetone (44 ng) and nonanal (3.5 μg) tested together, equivalent quantities; female or male moths

| Structure (SMILES) | trap captures versus dried muskrat pelt |
| --- | --- |
| CCCCCCCCC=O [nonanal] | more attractive than natural (muskrat) pelt |
| CC(=O)CC/C=C(\C)CCC=C(C)C [geranylacetone] | more attractive than natural (muskrat) pelt |
